Where “and” joins values, the source holds several entries; their conditions need not be identical. Equal values may be shown once. Toxic doses and inconclusive results are not listed. The calls were made as follows: active = survival T/C of 150% or more; inactive = T/C below 125% in these data.
System: P388 leukemia ip, CD2F1 mice, survival T/C
Test: NCI In Vivo Anticancer Drug Screen. Data for tumor model P388 Leukemia (intraperitoneal) in CD2F1 (CDF1) mice
Settings: endpoint: median survival time, higher = longer survival
Method in brief: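 Mice carrying the transplanted tumor received test compound or vehicle. Survival was recorded in each group, and the value is the treated-group measurement divided by that of the vehicle-treated control group.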

[1] = dose: 50.0 mg/kg/injection, schedule: Q01DX009 (ip), vehicle: saline
[2] = dose: 100.0 mg/kg/injection, schedule: Q01DX009 (ip), vehicle: saline
[3] = dose: 200.0 mg/kg/injection, schedule: Q01DX009 (ip), vehicle: saline
[4] = dose: 100.0 mg/kg/injection, schedule: Q01DX001 (ip), vehicle: Klucel (hydroxypropylcellulose) (HPC)
[5] = dose: 200.0 mg/kg/injection, schedule: Q01DX001 (ip), vehicle: Klucel (hydroxypropylcellulose) (HPC)
[6] = dose: 50.0 mg/kg/injection, schedule: Q01DX005 (ip), vehicle: Klucel (hydroxypropylcellulose) (HPC)
[7] = dose: 100.0 mg/kg/injection, schedule: Q01DX005 (ip), vehicle: Klucel (hydroxypropylcellulose) (HPC)
[8] = dose: 200.0 mg/kg/injection, schedule: Q01DX005 (ip), vehicle: Klucel (hydroxypropylcellulose) (HPC)
[9] = dose: 100.0 mg/kg/injection, schedule: Q04DX003 (ip), vehicle: saline
[10] = dose: 200.0 mg/kg/injection, schedule: Q04DX003 (ip), vehicle: saline
[11] = dose: 400.0 mg/kg/injection, schedule: Q04DX003 (ip), vehicle: saline
[12] = dose: 100.0 mg/kg/injection, schedule: Q01DX005 (ip), vehicle: saline
[13] = dose: 200.0 mg/kg/injection, schedule: Q01DX005 (ip), vehicle: saline
[14] = dose: 50.0 mg/kg/injection, schedule: Q01DX009 (ip), vehicle: Klucel (hydroxypropylcellulose) (HPC)
[15] = dose: 100.0 mg/kg/injection, schedule: Q01DX009 (ip), vehicle: Klucel (hydroxypropylcellulose) (HPC)
[16] = dose: 200.0 mg/kg/injection, schedule: Q01DX009 (ip), vehicle: Klucel (hydroxypropylcellulose) (HPC)
[17] = dose: 50.0 mg/kg/injection, schedule: Q01DX009 (ip), vehicle: other

Measured: T/C

C=C(Cn1cc(F)c(=O)n(CC(=C)C(=O)OCC)c1=O)C(=O)OCC
inactive: dose: 11.25 mg/kg/injection, schedule: Q04DX002 (ip), vehicle: distilled water + Tween-80 100 % of control | dose: 22.5 mg/kg/injection, schedule: Q04DX002 (ip), vehicle: distilled water + Tween-80 93 % of control | dose: 45.0 mg/kg/injection, schedule: Q04DX002 (ip), vehicle: distilled water + Tween-80 95 % of control | dose: 90.0 mg/kg/injection, schedule: Q04DX002 (ip), vehicle: distilled water + Tween-80 90 % of control | dose: 180.0 mg/kg/injection, schedule: Q04DX002 (ip), vehicle: distilled water + Tween-80 86 % of control

CC1(C)CNC(=S)N1C1CCCCC1
inactive: dose: 50.0 mg/kg/injection, schedule: Q01DX009 (ip), vehicle: suspension in saline 97 % of control | dose: 100.0 mg/kg/injection, schedule: Q01DX009 (ip), vehicle: suspension in saline 104 % of control | dose: 200.0 mg/kg/injection, schedule: Q01DX009 (ip), vehicle: suspension in saline 93 % of control

CCN1CC2(COC)C(O)CC(OC)C34C5CC6(O)C(OC)C=C(C5C6OC(=O)c5ccc(OC)c(OC)c5)C(C(OC)C23)C14 (centres undefined)
inactive: dose: 0.05 mg/kg/injection, schedule: Q01DX009 (ip), vehicle: Klucel (hydroxypropylcellulose) (HPC) 90 % of control | dose: 0.05 mg/kg/injection, schedule: Q01DX009 (ip), vehicle: saline with Tween-80 102 % of control | dose: 0.1 mg/kg/injection, schedule: Q01DX009 (ip), vehicle: Klucel (hydroxypropylcellulose) (HPC) 91 % of control | dose: 0.1 mg/kg/injection, schedule: Q01DX009 (ip), vehicle: saline with Tween-80 96 % of control | dose: 0.2 mg/kg/injection, schedule: Q01DX009 (ip), vehicle: Klucel (hydroxypropylcellulose) (HPC) 100 % of control | dose: 0.2 mg/kg/injection, schedule: Q01DX009 (ip), vehicle: saline with Tween-80 91 % of control | dose: 0.4 mg/kg/injection, schedule: Q01DX009 (ip), vehicle: Klucel (hydroxypropylcellulose) (HPC) 116 % of control | dose: 0.4 mg/kg/injection, schedule: Q01DX009 (ip), vehicle: saline with Tween-80 91 % of control

CC(C)(C)c1ccc(C(=O)NCSCC(NC(=O)CCC(N)C(=O)O)C(=O)NCC(=O)O)cc1 (centres undefined)
inactive: dose: 60.0 mg/kg/injection, schedule: Q01DX005 (ip), vehicle: saline with Tween-80 98 % of control | dose: 120.0 mg/kg/injection, schedule: Q01DX005 (ip), vehicle: saline with Tween-80 104 % of control | dose: 240.0 mg/kg/injection, schedule: Q01DX005 (ip), vehicle: saline with Tween-80 86 % of control

COc1cc2c(NCCCCCO)ncnc2c(OC)c1OC
inactive: [1] 105 % of control | [2] 105 % of control | [3] 102 % of control

COCC1(C)CCCC2(C)C1CCC13CCCCC12O3 (centres undefined)
inactive: [4] 100 % of control | [5] 100 % of control | dose: 400.0 mg/kg/injection, schedule: Q01DX001 (ip), vehicle: Klucel (hydroxypropylcellulose) (HPC) 100 % of control

O=C1/C(=C/c2cccc(O)c2O)SC(=S)N1Cc1ccco1
inactive: [6] 102 % of control | [7] 106 % of control | [8] 103 % of control

C[n+]1ccc(C(=O)O)cc1 (tested in a mixture with another compound)
inactive: [9] 104 % of control | [10] 98 % of control | [11] 98 % of control

COC(=O)C(CCCN)NC(=O)c1ccccc1 (centres undefined)
inactive: dose: 50.0 mg/kg/injection, schedule: Q01DX005 (ip), vehicle: saline 99 % of control | [12] 92 % of control | [13] 90 % of control

COc1ccc(CCN)c(OC)c1OC
inactive: [1] 105 % of control and 107 % of control | [2] 104 % of control and 110 % of control

CCO[Si](O[Si](OCC)(c1ccccc1)c1ccccc1)(c1ccccc1)c1ccccc1
inactive: [1] 93 % of control | [2] 102 % of control | [3] 91 % of control

Cn1c(=O)c2[nH]c([N+](=O)[O-])nc2n(C)c1=O
inactive: [9] 96 % of control | [10] 100 % of control | [11] 100 % of control

Cc1ccc(N=Cc2cccs2)c(Br)c1
inactive: [14] 100 % of control | [15] 118 % of control | [16] 100 % of control

CN(CCc1nnnn1C)/N=C\C=N\N(C)CCc1nnnn1C
inactive: dose: 50.0 mg/kg/injection, schedule: Q01DX001 (ip), vehicle: Klucel (hydroxypropylcellulose) (HPC) 112 % of control | [4] 112 % of control | [5] 97 % of control

O=C1C=C(NCc2nc3ccccc3[nH]2)C(c2ccccc2)N1c1ccccc1 (centres undefined)
inactive: [6] 100 % of control | [7] 96 % of control | [8] 93 % of control

Cn1cnc([N+](=O)[O-])c1S(N)(=O)=O
inactive: dose: 100.0 mg/kg/injection, schedule: Q01DX009 (ip), vehicle: saline with Tween-80 88 % of control | dose: 200.0 mg/kg/injection, schedule: Q01DX009 (ip), vehicle: saline with Tween-80 123 % of control

CC1=C(C#N)C(C)(C)C(C#N)=C(C)N1
inactive: dose: 12.5 mg/kg/injection, schedule: Q01DX009 (ip), vehicle: other 108 % of control | dose: 25.0 mg/kg/injection, schedule: Q01DX009 (ip), vehicle: other 106 % of control | [17] 92 % of control

N#CN=C(N)N
inactive: dose: 18.8 mg/kg/injection, schedule: Q01DX005 (ip), vehicle: saline 115 % of control | dose: 37.5 mg/kg/injection, schedule: Q01DX005 (ip), vehicle: saline 112 % of control | dose: 75.0 mg/kg/injection, schedule: Q01DX005 (ip), vehicle: saline 98 % of control | [12] 96 % of control | dose: 150.0 mg/kg/injection, schedule: Q01DX005 (ip), vehicle: saline 105 % of control | [13] 102 % of control | dose: 300.0 mg/kg/injection, schedule: Q01DX005 (ip), vehicle: saline 118 % of control | dose: 400.0 mg/kg/injection, schedule: Q01DX005 (ip), vehicle: saline 99 % of control | dose: 600.0 mg/kg/injection, schedule: Q01DX005 (ip), vehicle: saline 112 % of control | dose: 800.0 mg/kg/injection, schedule: Q01DX005 (ip), vehicle: saline 101 % of control

N=Nc1c(O)[nH]c2ccccc12
inactive: [14] 89 % of control | [15] 89 % of control | [16] 95 % of control | dose: 400.0 mg/kg/injection, schedule: Q01DX009 (ip), vehicle: Klucel (hydroxypropylcellulose) (HPC) 100 % of control

Cc1cc(NCCCCCCNc2cc(C)nc3cc([N+](=O)[O-])ccc23)c2ccc([N+](=O)[O-])cc2n1
inactive: [17] 98 % of control | dose: 100.0 mg/kg/injection, schedule: Q01DX009 (ip), vehicle: other 99 % of control | dose: 200.0 mg/kg/injection, schedule: Q01DX009 (ip), vehicle: other 96 % of control | dose: 400.0 mg/kg/injection, schedule: Q01DX009 (ip), vehicle: other 103 % of control

CCCCCCCC(=O)Nc1ccc(CC)cc1
inactive: dose: 100.0 mg/kg/injection, schedule: Q04DX003 (ip), vehicle: other 109 % of control | dose: 200.0 mg/kg/injection, schedule: Q04DX003 (ip), vehicle: other 90 % of control | dose: 400.0 mg/kg/injection, schedule: Q04DX003 (ip), vehicle: other 118 % of control

CC1(C)C(=O)N(Cl)C(=O)N1Cl
inactive: dose: 6.25 mg/kg/injection, schedule: Q01DX005 (ip), vehicle: Klucel (hydroxypropylcellulose) (HPC) 100 % of control and 95 % of control | dose: 6.25 mg/kg/injection, schedule: Q01DX005 (ip), vehicle: saline with Tween-80 92 % of control | dose: 12.5 mg/kg/injection, schedule: Q01DX005 (ip), vehicle: Klucel (hydroxypropylcellulose) (HPC) 102 % of control and 101 % of control | dose: 12.5 mg/kg/injection, schedule: Q01DX005 (ip), vehicle: saline with Tween-80 87 % of control | dose: 16.5 mg/kg/injection, schedule: Q01DX009 (ip), vehicle: saline with Tween-80 104 % of control | dose: 25.0 mg/kg/injection, schedule: Q01DX005 (ip), vehicle: Klucel (hydroxypropylcellulose) (HPC) 106 % of control | dose: 25.0 mg/kg/injection, schedule: Q01DX005 (ip), vehicle: saline with Tween-80 97 % of control
